In patent US8420777B2, “Compounds that inhibit Hsp90 protein-protein interactions with IAP proteins” (University of Massachusetts, priority 2004, dated 2013):
Blank lines part the entries; values can stand above or below the substance they belong to. Square brackets hold non-standard residues; d marks the D form. Ends that are not written are not given here.

Assays:
[1] = target: T1, Hsp90-Survivin binding interactions (Homo sapiens, UniProt P07900, S63T); assay: ELISA: Survivin peptides inhibiting Hsp90 binding to immobilized Survivin; conditions: 20 μg/ml peptide preincubated with Hsp90, 16 hours, 4° C.
T1 construct: GST-Hsp90 (amino acids 1-732); GST (N); made in house; host or cells: E. coli
Protocol: ELISA experiments were performed by immobilizing recombinant Survivin (r-Survivin) ([…]) or recombinant Hsp90 (r-Hsp90) (10 μg/ml) on plastic microtiter wells (Immulon™-2, Dynatech Laboratories, Chantilly, Va.) using bicarbonate buffer, pH 9.5 (100 μl/well) for 18 hours at 4° C. Bound protein was blocked with 3% gelatin for 1 hour at 37° C., rinsed with washing buffer (TBS pH 7.4, 0.1% Tween™, 0.1% BSA) and incubated for 1 hour at 37° C. with different concentrations of a test protein to determine if the test protein bound the immobilized protein.
ELISA experiments were performed essentially as in Example 2 with the following variations. 20 μg/ml of each recombinant Survivin peptide (expressed in E. coli) was preincubated with Hsp90 at 2.5 mg/ml for 16 hours at 4° C. After binding and blocking of full length Survivin to wells in a microtiter plate, the preincubated mixtures of Hsp90 and Survivin peptides were added to the wells and incubated for 1 hour at 37° C. Wells were washed, incubated with primary antibody, washed again, and bound antibody was quantified as described above. Each experiment was repeated three times and the standard deviation is shown.

[2] = system: HeLa, MDA-MB231, MCF-7, PANC-1 tumor cell lines; assay: MTT cell viability with retro-inverso peptides; type: cell-based; conditions: increasing concentrations, 24 hours
Protocol: For determination of apoptosis by hypodiploid DNA content, various tumor cell lines were incubated with increasing concentrations of the cell permeable control scrambled (SEQ ID NO:25) or Survivin peptide (SEQ ID NO:19), harvested after 24 hours (floaters plus attached cells) fixed in 70% ethanol, and stained with 10 μg/ml propidium iodide plus 100 μg/ml RNAse A and 0.05% Triton™ X-100 in PBS, pH 7.4. Cultures were analyzed for DNA content by flow cytometry. For colorimetric quantification of cell viability, an MTT assay was used. […] Decrease in cell viability was analyzed for loss of colorimetric absorption at OD405.
To increase the stability in vivo of the cell permeable Survivin K79-L87 sequence, we synthesized peptidomimetic variants in which the cell penetrating Antennapedia sequence and the Survivin active sequence K79-L87 were synthesized using D-amino acid ([…]) and in the reverse order (inverso sequence). […] To test the ability of the retro-inverso cell permeable sequences to induce apoptosis in cancer cells, a panel of tumor cell lines were analyzed by the cell viability MTT assay after incubation with the indicated increasing concentrations of the P3 (Survivin) or P4 (control) retro-inverso cell permeable peptides.

[3] = system: HCT116, HeLa, MCF-7, PANC-1, PC3 tumor cells; assay: Trypan blue exclusion in tumor cell lines; type: cell-based; conditions: 150 μM, 24 hours
Protocol: To study the specificity of the retro-inverso P3 and P4 sequences described in Example 17, we incubated a variety of tumor cell lines with the cell permeable retro-inverso P3 and P4 peptides (150 μM), and stained the cultures after 24 hours by trypan blue (Sigma) exclusion. Cells that fail to exclude the blue dye were cells that lost cell viability and plasma membrane integrity.

[4] = system: HL-60 and THP-1 AML cell lines; assay: MTT cell viability, short versus full length peptide; type: cell-based; conditions: 4×10^5 cells
Protocol: FIGS. 29B-29D are graphs depicting killing of AML cells by Survivin peptides. FIG. 29B depicts survivin peptide activity in HL-60 cells, measured by Trypan blue exclusion. FIGS. 29C and 29D depict killing, as measured using MTT, of HL-60 (FIG. 29C) or THP-1 (FIG. 29D) cells by full length Survivin peptide (SEQ ID NO:19), Survivin peptide K79-G83 (SEQ ID NO:20), or scrambled peptide (SEQ ID NO:25 and SEQ ID NO:28).
The activity of a shorter Survivin peptide was also tested in an AML cell line. A shorter cell permeable Survivin peptide was synthesized by fusing the third α-helix of the Antennapedia carrier sequence to the amino-terminus of the Survivin peptide sequence K79-G83 (SEQ ID NO:20). […] The scrambled control peptide ([…]; SEQ ID NO:28) was ineffective (FIGS. 29C, D). For these experiments a higher number of cells was used (4×10^5) to produce a 50% killing efficiency by full length survivin peptide.

[5] = system: U937, K562, HL60, THP1 AML cell lines; assay: MTT cell viability in AML cell lines; type: cell-based, human
Protocol: FIG. 30 is a graph depicting killing activity of survivin K79-G83 in AML cells. The indicated human AML cell lines (U937, K562, HL60, and THP1) were incubated with scrambled (SEQ ID NO:28) or Survivin (SEQ ID NO:20) peptides and evaluated for cell viability by MTT.
The effect of the K79-G83 Survivin peptide was characterized in more detail for anti-tumor activity in AML. The K79-L87 (SEQ ID NO:19) and K79-G83 peptides (SEQ ID NO:20) were incubated with AML cells, and cell viability was measured using MTT.

recombinant Hsp90 = target: T2, recombinant Hsp90 (Homo sapiens, UniProt P07900, S63T); assay: ELISA binding to recombinant Hsp90
T2 construct: GST-Hsp90 (amino acids 1-732); GST (N); made in house; host or cells: E. coli
Excerpt: (§1) FIG. 31 is a graph depicting Hsp90 binding by Survivin peptides, measured by ELISA. Data are the mean±S.D. of two independent experiments.

survivin-Hsp90 = target: T3, survivin-Hsp90 (Homo sapiens, UniProt P07900, S63T); assay: ELISA inhibition of recombinant survivin binding to Hsp90
T3 construct: GST-Hsp90 (amino acids 1-732); GST (N); made in house; host or cells: E. coli
Excerpt: as §1

HeLa cells [6] = assay: Apoptosis by hypodiploid DNA content, propidium iodide flow cytometry; type: cell-based, Human; conditions: peptides, 24 hours, comparison with chemotherapeutic drugs
Protocol: For determination of apoptosis by hypodiploid DNA content, various tumor cell lines were incubated with increasing concentrations of the cell permeable control scrambled (SEQ ID NO:25) or Survivin peptide (SEQ ID NO:19), harvested after 24 hours (floaters plus attached cells) fixed in 70% ethanol, and stained with 10 μg/ml propidium iodide plus 100 μg/ml RNAse A and 0.05% Triton™ X-100 in PBS, pH 7.4. Cultures were analyzed for DNA content by flow cytometry. For colorimetric quantification of cell viability, an MTT assay was used. Various tumor cell lines were incubated with increasing concentrations of the cell permeable retro-inverso control scrambled P4 or the Survivin-specific P3 peptide, incubated for 24 hours at 37° C. washed twice with Bruffs Media, and 4,5-dimethylthiazol-2-yl)-2,5-diphenyltetrazolium bromide (MTT) (Sigma, St. Louis, Mo.) was added at 5 mg/ml. Decrease in cell viability was analyzed for loss of colorimetric absorption at OD405.
HeLa cells were incubated with the indicated increasing concentrations of the cell permeable Control (scrambled) or Survivin peptide, harvested after 24 hours at 37° C., and analyzed by hypodiploid DNA content by propidium iodide staining and flow cytometry.
HeLa cells were incubated with chemotherapeutic drugs Taxol™ (10 μM) or adriamycin (300 nM), or cell permeable control peptide or the Survivin peptide, harvested after 24 hours, and analyzed for induction of apoptosis by hypodiploid DNA content by flow cytometry.

HeLa cells [7] = assay: Stability of Hsp90 client proteins and caspase-3 proform, Western blot; type: cell-based, Human; conditions: increasing concentrations, 24 hours
Protocol: To determine whether intracellular loading of the Survivin cell permeable peptide reproduced the effect of mAb 8E2 that disrupts the Survivin-Hsp90 interaction in destabilizing Survivin levels in vivo (FIG. 8), HeLa cells were loaded with the indicated increasing concentrations of cell permeable control (SEQ ID NO:25) or Survivin (SEQ ID NO:19) cell permeable peptide, harvested after 24 hours, and analyzed for stability of Hsp90 client proteins, Survivin and Akt. Polyclonal antibody to Akt was obtained from Cell Signaling Technology (Cat. No. 9272).

[8] = system: DU145, PC3, HeLa tumor cell lines; assay: MTT colorimetric viability assay, tumor cell lines; type: cell-based; conditions: increasing concentrations, 24 hours
Protocol: (§2) FIGS. 22A and 22B compares the effect of P31 (SEQ ID NO:19) or P33 (SEQ ID NO:25) on apoptosis of tumor cell lines (FIG. 22A) and normal cell lines (FIG. 22B). The following tumor cell lines DU145 (prostate cancer, circles), PC3 (prostate cancer, triangles), or HeLa (cervical carcinoma, squares) were treated with the indicated increasing concentrations of P31 peptide (solid symbols) or control P33 peptide (open symbols), harvested after 24 hours, and analyzed for cell viability using an MTT colorimetric assay. For normal cell types (right panel), HFF (human foreskin fibroblasts, squares), HGF (human fibroblasts, triangles) or WS-1 (human epithelial cells, circles) were treated with P31 (solid symbols) or control scrambled peptide P33, harvested after 24 hours and analyzed for overall cell viability by MTT colorimetric assay. All cell lines were from ATCC.

[9] = system: HFF, HGF, WS-1 normal cells; assay: MTT colorimetric viability assay, normal cell types; type: cell-based, human; conditions: 24 hours
Protocol: as §2

HeLa cells [10] = assay: Annexin V labeling and propidium iodide multiparametric flow cytometry; type: cell-based, Human; conditions: increasing concentrations, eight hour incubation, 37° C.
Protocol: HeLa cell cultures were treated with the indicated increasing concentrations of P31 (Survivin) or P33 (Control; SEQ ID NO:25) peptides, harvested after an eight hour incubation at 37° C., and analyzed for multiparametric flow cytometry of Annexin V labeling (X-axis, a marker of apoptosis) and propidium iodide staining (Y-axis, a marker of cell death).

PC3 cells = assay: Immunoblotting of Hsp90 client proteins; type: cell-based; conditions: 75 and 150 μM, 8 hours
Protocol: Survivin affects the stability and function of Hsp90 client proteins in tumor cells. PC3 cells were untreated or exposed to 75 and 150 μM concentrations of the survivin peptide (SEQ ID NO:19) (or control scrambled peptide; SEQ ID NO:25) for 8 hours and processed for immunoblotting against the Hsp90 client proteins survivin, AKT, and CDK-6. […] Conversely, the levels of Hsp90, Hsp70, and PCNA were not affected (FIG. 26A).

HL-60 cells = assay: Cell killing by trypan blue exclusion; type: cell-based
Protocol: The expression and function of the survivin-Hsp90 pathway in acute myelogenous leukemia (AML) cell lines was analyzed. Survivin was abundantly expressed in four AML cell lines, U937, K-562, THP-1 and HL-60, by Western blotting (FIG. 29A).

Hsp90 = target: T4, Hsp90 (Homo sapiens, UniProt P07900); assay: Surface plasmon resonance of immobilized biotin peptides with r-Hsp90; type: binding
T4 construct: GST-Hsp90 (amino acids 1-732); GST (N); made in house; host or cells: E. coli
Protocol: Wild type Survivin peptide 77 to 91 (SEQ ID NO:22) or the corresponding C84A mutant 77-91 peptide (HKKHSSGAAFLSVKK; SEQ ID NO:23) was synthesized with an N-terminal biotin and immobilized on streptavidin coated chips (SA5) purchased from Biacore Inc. (Piscataway, N.J.). Increasing concentrations (100 nM-10 μM) of purified r-Hsp90 suspended in 10 mM HEPES, 150 mM NaCl, 3 mM EDTA, 0.005% polysorbate-20, 1 mM DTT, were then injected in […] over the immobilized peptides. A constant flow rate of […] was maintained, and the dissociation phase was followed for 300 seconds. Surfaces were regenerated using […] of 1 M NaCl/50 mM NaOH after each dissociation phase. A new injection cycle was initiated only after 10 min post-regeneration to ensure complete removal of NaCl and NaOH. The collected data were analyzed using the Biaeval 3.0 software package from Biacore Inc.
Sensorgrams (FIG. 10B) indicate binding of the Survivin peptides to Hsp90, measured by an increase in surface plasmon resonance during analyte flow over the chip surface, with the nonspecific signal from the biotin-only surface subtracted.

Substance: KHSSGCAFLSVK [SEQ ID NO:3]
inhibition of Hsp90-Survivin binding interactions [1]: especially effective inhibitor

Substance: KKWKMRRNQFWVIWQRGHSFCALKS-CONH2 ([dK][dK][dW][dK][dM][dR][dR][dN][dQ][dF][dW][dV][dI][dW][dQ][dR]G[dH][dS][dF][dC][dA][dL][dK][dS]-NH2; also: retro-inverso) [P4, retro-inverso control scrambled peptide]
cell viability (MTT) [2]: no decrease in cell viability
tumor cell viability (trypan blue exclusion) [3]: did not reduce tumor cell viability

binding to recombinant Hsp90 in vitro (recombinant Hsp90): comparably bound recombinant Hsp90
Substance: RQIKIWFQNRRMKWKKKHSSG (Synthetically generated peptide) [SEQ ID NO:20]
reduction of cell viability (MTT) [4]: considerably more active than the P31 peptide
cell viability (MTT), killing of AML cell lines [5]: efficiently killed all AML cell lines tested
inhibition of binding of recombinant survivin to Hsp90 (survivin-Hsp90): inhibited the binding of recombinant survivin to Hsp90 in a dose-dependent manner

Substance: RQIKIWFQNRRMKWKKSKLACFSHG (Synthetically generated peptide) [P33, reference compound]
cell population with hypodiploid DNA content (apoptotic) (HeLa cells [6]): not
levels of Survivin and Akt (HeLa cells [7]): ineffective
cell death in cancer cell lines (MTT) [8]: did not induce cell death in cancer or normal cell types
cell death in normal cell types (MTT) [9]: did not induce cell death in cancer or normal cell types
induction of apoptosis (Annexin V / propidium iodide) (HeLa cells [10]): ineffective
Hsp90 client proteins (survivin, Akt, CDK-4, CDK-6) (PC3 cells): not
cell killing (trypan blue exclusion) (HL-60 cells): ineffective
cell viability (MTT), killing of AML cell lines [5]: no effect

on-rates, wild type versus C84A peptide (Hsp90): similar
Substance: HKKHSSGAAFLSVKK (Synthetically generated peptide) [SEQ ID NO:23, C84A mutant 77-91 peptide]
